Measured values published in US9113629B2, “4-amino-6-(4-substituted-phenyl)-picolinates and 6-amino-2-(4-substituted-phenyl)-pyrimidine-4-carboxylates and their use as herbicides” (DOW AGROSCIENCES LLC, priority 2013, dated 2015).
Read-outs that look alike come from different tables or passages of the source.

Tests used:
[1] = tested on: Key Broadleaf Weed and Crop Species; assay: Post-emergent Test II herbicidal activity (Table 5); format: in vivo; details: post-emergence, 336 h, 14 days after application; for pest or weed control at 70 g/ha: application rate 70 g ai/ha; for pest or weed control at 140 g/ha: application rate 140 g ai/ha
Summary of the method: (§1)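 Post-emergence foliar spray, 187 L/ha, track sprayer at 43 cm above canopy. Carrier: acetone/water/IPA/DMSO/Atplus 411F/Triton X-155. Plants at 1st–2nd true leaf; subirrigated afterwards; % injury scored visually at 14 d.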

[2] = tested on: Key Grass and Sedge Weeds as well as Grass Crops; assay: Post-emergent Test II herbicidal activity (Table 6); format: in vivo; details: post-emergence, 336 h; for pest or weed control at 70 g/ha: 70 g ai/ha; for pest or weed control at 140 g/ha: 140 g ai/ha
Summary of the method: as §1

[3] = ABUTH: velvetleaf (Abutilon theophrasti), read-out: Visual Growth Reduction (%) 14 Days After Application, ABUTH
[4] = AMARE: redroot pigweed (Amaranthus retroflexus), read-out: Visual Growth Reduction (%) 14 Days After Application, AMARE
[5] = BRSNN: oilseed-rape, canola (Brassica napus), read-out: Visual Growth Reduction (%) 14 Days After Application, BRSNN
[6] = CHEAL: lambsquarters (Chenopodium album), read-out: Visual Growth Reduction (%) 14 Days After Application, CHEAL
[7] = EPHHL: wild poinsettia (Euphorbia heterophylla), read-out: Visual Growth Reduction (%) 14 Days After Application, EPHHL
[8] = HELAN: sunflower (Helianthus annuus), read-out: Visual Growth Reduction (%) 14 Days After Application, HELAN
[9] = VIOTR: wild pansy (Viola tricolor), read-out: Visual Growth Reduction (%) 14 Days After Application, VIOTR
[10] = CYPES: yellow nutsedge (Cyperus esculentus), read-out: Visual Growth Reduction (%) 14 Days After Application, CYPES
[11] = DIGSA: crabgrass (Digitaria sanguinalis), read-out: Visual Growth Reduction (%) 14 Days After Application, DIGSA
[12] = ECHCG: barnyardgrass (Echinochloa crus-galli), read-out: Visual Growth Reduction (%) 14 Days After Application, ECHCG
[13] = ORYSA: rice (Oryza sativa), crop, read-out: Visual Growth Reduction (%) 14 Days After Application, ORYSA
[14] = SETFA: giant foxtail (Setaria faberi), read-out: Visual Growth Reduction (%) 14 Days After Application, SETFA
[15] = SORVU: grain sorghum (Sorghum vulgare), read-out: Visual Growth Reduction (%) 14 Days After Application, SORVU
[16] = TRZSS (wheat, Triticum aestivum), crop, read-out: Visual Growth Reduction (%) 14 Days After Application, TRZSS
[17] = ZEAMX: maize, corn (Zea mays), crop, read-out: Visual Growth Reduction (%) 14 Days After Application, ZEAMX

Row | Compound | pest or weed control at 70 g/ha [1, 3] [%] | pest or weed control at 140 g/ha [1, 3] [%] | pest or weed control at 70 g/ha [1, 4] [%] | pest or weed control at 140 g/ha [1, 4] [%] | pest or weed control at 70 g/ha [1, 5] [%] | pest or weed control at 140 g/ha [1, 5] [%] | pest or weed control at 70 g/ha [1, 6] [%] | pest or weed control at 140 g/ha [1, 6] [%] | pest or weed control at 70 g/ha [1, 7] [%] | pest or weed control at 140 g/ha [1, 7] [%] | pest or weed control at 70 g/ha [1, 8] [%] | pest or weed control at 140 g/ha [1, 8] [%] | pest or weed control at 70 g/ha [1, 9] [%] | pest or weed control at 140 g/ha [1, 9] [%] | pest or weed control at 70 g/ha [2, 10] [%] | pest or weed control at 140 g/ha [2, 10] [%] | pest or weed control at 70 g/ha [2, 11] [%] | pest or weed control at 140 g/ha [2, 11] [%] | pest or weed control at 70 g/ha [2, 12] [%] | pest or weed control at 140 g/ha [2, 12] [%] | also measured
1 | Nc1c(F)c(-c2ccc(Br)c(F)c2)nc(C(=O)O)c1Cl [Compound 21] | 95 to 100 | 95 to 100 | 95 to 100 | 95 to 100 | 95 to 100 | 95 to 100 | 95 to 100 | 95 to 100 | 95 to 100 | 95 to 100 | 95 to 100 | 95 to 100 | 95 to 100 | 95 to 100 | 95 to 100 | 95 to 100 | 75 to 84 | 75 to 84 | 95 to 100 | 95 to 100 | pest or weed control at 70 g/ha [2, 13]: 0 to 29%; pest or weed control at 140 g/ha [2, 13]: 0 to 29%; pest or weed control at 70 g/ha [2, 14]: 95 to 100%; pest or weed control at 140 g/ha [2, 14]: 95 to 100%; pest or weed control at 70 g/ha [2, 15]: 95 to 100%; pest or weed control at 140 g/ha [2, 15]: 95 to 100%; pest or weed control at 70 g/ha [2, 16]: 60 to 74%; pest or weed control at 140 g/ha [2, 16]: 60 to 74%; pest or weed control at 70 g/ha [2, 17]: 95 to 100%; pest or weed control at 140 g/ha [2, 17]: 95 to 100%; melting point: 117 to 120 °C
2 | C#Cc1ccc(-c2nc(C(=O)OC)c(Cl)c(N)c2F)cc1F [Compound 133, methyl 4-amino-3-chloro-6-(4-ethynyl-3-fluorophenyl)-5-fluoropicolinate] | 85 to 94 | 95 to 100 | 75 to 84 | 75 to 84 | 75 to 84 | 95 to 100 | 95 to 100 | 95 to 100 | 85 to 94 | 95 to 100 | 95 to 100 | 95 to 100 | 0 to 29 | 30 to 44 | 30 to 44 | 45 to 59 | 0 to 29 | 60 to 74 | 0 to 29 | 60 to 74 | pest or weed control at 70 g/ha [2, 13]: 0 to 29%; pest or weed control at 140 g/ha [2, 13]: 0 to 29%; pest or weed control at 70 g/ha [2, 14]: 45 to 59%; pest or weed control at 140 g/ha [2, 14]: 75 to 84%; pest or weed control at 70 g/ha [2, 15]: 60 to 74%; pest or weed control at 140 g/ha [2, 15]: 75 to 84%; pest or weed control at 70 g/ha [2, 16]: 30 to 44%; pest or weed control at 140 g/ha [2, 16]: 30 to 44%; pest or weed control at 70 g/ha [2, 17]: 95 to 100%; pest or weed control at 140 g/ha [2, 17]: 95 to 100%; melting point: 141 to 143 °C
3 | COC(=O)c1nc(-c2ccc(F)c(F)c2F)c(F)c(N)c1Cl [Compound 186] | 95 to 100 | 95 to 100 | 95 to 100 | 95 to 100 | 85 to 94 | 95 to 100 | 95 to 100 | 95 to 100 | 95 to 100 | 95 to 100 | 85 to 94 | 95 to 100 | 85 to 94 | 95 to 100 | 85 to 94 | 85 to 94 | 45 to 59 | 60 to 74 | 85 to 94 | 95 to 100 | pest or weed control at 70 g/ha [2, 13]: 0 to 29%; pest or weed control at 140 g/ha [2, 13]: 30 to 44%; pest or weed control at 70 g/ha [2, 14]: 0 to 29%; pest or weed control at 140 g/ha [2, 14]: 60 to 74%; pest or weed control at 70 g/ha [2, 15]: 60 to 74%; pest or weed control at 140 g/ha [2, 15]: 75 to 84%; pest or weed control at 70 g/ha [2, 16]: 60 to 74%; pest or weed control at 140 g/ha [2, 16]: 60 to 74%; pest or weed control at 70 g/ha [2, 17]: 75 to 84%; pest or weed control at 140 g/ha [2, 17]: 85 to 94%; melting point: 147 to 148 °C
4 | C#Cc1ccc(-c2nc(C(=O)O)c(Cl)c(N)c2F)c(F)c1F [Compound 50] | 60 to 74 | 60 to 74 | 0 to 29 | 0 to 29 | 0 to 29 | 0 to 29 | 0 to 29 | 0 to 29 | 45 to 59 | 95 to 100 | 45 to 59 | 60 to 74 | 0 to 29 | 0 to 29 | 0 to 29 | 0 to 29 | 0 to 29 | 45 to 59 | 45 to 59 | 75 to 84 | pest or weed control at 70 g/ha [2, 13]: 0 to 29%; pest or weed control at 140 g/ha [2, 13]: 0 to 29%; pest or weed control at 70 g/ha [2, 14]: 30 to 44%; pest or weed control at 140 g/ha [2, 14]: 45 to 59%; pest or weed control at 70 g/ha [2, 15]: 0 to 29%; pest or weed control at 140 g/ha [2, 15]: 0 to 29%; pest or weed control at 70 g/ha [2, 16]: 0 to 29%; pest or weed control at 140 g/ha [2, 16]: 0 to 29%; pest or weed control at 70 g/ha [2, 17]: 95 to 100%; pest or weed control at 140 g/ha [2, 17]: 95 to 100%; melting point: 174 to 176 °C
